The values below come from PMC9118628, “Synthesis, molecular docking, and cytotoxicity of quinazolinone and dihydroquinazolinone derivatives as cytotoxic agents” (BMC Chemistry, 2022).

Read-outs that look alike come from different tables or passages of the source.

One may read the IC50 as the midpoint of a concentration-inhibition curve. The melting point is the temperature, or range, at which the solid turns liquid.

For data set [1], the system named is MCF-7 breast cancer cell line. As to the kind of experiment: MTT cytotoxicity assay, MCF-7. It counts as cell-based. To be noted: Homo sapiens. The procedure:
(§1) The selected compounds 5a–e and 10a–f were evaluated as possible cytotoxic agents against human colon cancer HCT-116 cell line and MCF-7 breast cancer cell line by MTT assay using doxorubicin as the standard drug. […] The IC50 value was calculated from the inhibition rates at the mentioned durations. […] This is because the IC50 values in 72 h with p-value < 0.0001 are less than those in 48 h.
(§2) The human cancer cells MCF-7and HCT-116 as well as Hek-293 as normal cells were purchased from Pastor Institute of Iran. The cells were maintained in RPMI 1640 medium supplemented with 10% heat-inactivated fetal bovine serum (Company: DNAbiotec, Cat number: DB9723), and streptomycin ([…]) and penicillin (100 U/ml) at 37 °C in a humidified atmosphere with 5% CO2 in the air.
(§3) The cytotoxic activities of compounds 5a–e and 10a–f were evaluated against cancerous cell lines. […] The absorbance was read at 570 nm against a test wavelength of 690 nm […]. The inhibition percentage of compounds was calculated as: ODwells treated with DMSO1%–ODwells treated with compounds/ODwells treated with DMSO1%*100 (OD = absorbance). Then, IC50 values were calculated by nonlinear regression analysis.
On the technique in general: Tetrazolium assays rely on reduction of a dye to a coloured formazan, in cell work by metabolically active cells.

Data set [2] has as its system human colon cancer HCT-116 cell line. The data set can be described thus: MTT cytotoxicity assay, HCT-116. Type of data set: cell-based. How it is done:
as §1, §2, §3

In a further data set the test system is Hek-293 cell lines. The data set can be described thus: MTT toxicity assessment on normal cells. It counts as cell-based. The following applies: for toxicity against Hek-293 cell lines (in words): Hek-293 normal cells; for IC50: Homo sapiens, HEK293, Hek-293 normal cells, 72 h, read-out: IC50 (µM) Hek-293 after 72 h. How it is done:
as §2, §3

The subject of another data set is PARP10. The following applies: cited from earlier work.
[3] abbreviates: MCF7, MCF-7, 48 h, read-out: IC50 (µM) MCF-7 48 h.
[4] abbreviates: MCF7, MCF-7, 72 h, read-out: IC50 (µM) MCF-7 72 h.
Where [5] appears, read: HCT-116, 48 h, read-out: IC50 (µM) HCT-116 48 h.
Setting [6] is: HCT-116, 72 h, read-out: IC50 (µM) HCT-116 72 h.

In the case of `COc1ccc(-n2c(Nc3ccccc3)nc3ccccc3c2=O)cc1` [Compound 5d, 3-(4-methoxyphenyl)-2-(phenylamino)quinazolin-4(3H)-one], the melting point lay in the range of 256 to 259 °C. Further, the IC50 in data set [1] (setting [3]) was determined as 28.8 µM. In addition, the concentration for half-maximal inhibition (IC50) in data set [1] (setting [4]) amounted to 25 µM. In addition, the 50% inhibitory concentration (IC50) in data set [2] (setting [5]) was 39.2 µM. For the same compound, in data set [2] (setting [6]), the half-inhibitory concentration (IC50) came out at 17.8 µM. In the data set with Hek-293 cell lines, the “toxicity against Hek-293 cell lines (in words)” value (“toxicity” for short) was “low toxicity” and the half-inhibitory concentration (IC50) came to 68.1 ± 12.3 µM.

Turning to `CC#Cc1ccc2c(=O)[nH]c(CSc3ccc(C(=O)O)cc3)nc2c1` [Compound F], the concentration for half-maximal inhibition (IC50) in the data set on PARP10 is 0.2 µM.

In the case of `Cc1ccccc1Nc1nc2ccccc2c(=O)n1-c1ccccc1` [Compound 5a, 2-[(2-Methylphenyl)amino]-3-phenylquinazolin-4(3H)-one], the melting point was in the range of 254 to 258 °C. For the same compound, the IC50 in data set [1] (setting [3]) was 71.2 µM. Moreover, the IC50 in data set [1] (setting [4]) turned out to be 14.7 µM. The half-maximal inhibitory concentration (IC50) in data set [2] (setting [5]) amounted to 7.15 µM. For the same compound, in data set [2] (setting [6]), the concentration for half-maximal inhibition (IC50) worked out at 4.87 µM. In the data set on Hek-293 cell lines, the “toxicity” value was “high toxicity” and the IC50 is 8.71 ± 1.23 µM.

Turning to `O=C1c2ccccc2NC(c2ccc(OCc3cn(Cc4ccc(Cl)cc4)nn3)cc2)N1Cc1ccccc1` (stereo not drawn) [Compound 10c, 3-benzyl-2-(4-((1-(4-chlorobenzyl)-1H-1,2,3-triazol-4-yl)methoxy)phenyl)-2,3-dihydroquinazolin-4(1H)-one], the melting point was 84 to 87 °C. In addition, the half-inhibitory concentration (IC50) in data set [1] (setting [3]) came to 52 µM. Also, the IC50 in data set [1] (setting [4]) worked out at 32.3 µM. The IC50 in data set [2] (setting [5]) amounted to 120 µM. Moreover, the IC50 in data set [2] (setting [6]) worked out at 61 µM.

`O=C1c2ccccc2NC(c2ccc(OCc3cn(Cc4ccc(F)cc4)nn3)cc2)N1Cc1ccccc1` (stereo not drawn) [Compound 10b, 3-benzyl-2-(4-((1-(4-fluorobenzyl)-1H-1,2,3-triazol-4-yl)methoxy)phenyl)-2,3 dihydroquinazolin-4(1H)-one]: the melting point was 83 to 86 °C. Further, the IC50 in data set [1] (setting [3]) is 139 µM. Further, the IC50 in data set [1] (setting [4]) turned out to be 98.5 µM. The IC50 in data set [2] (setting [5]) is 184 µM. Also, the IC50 in data set [2] (setting [6]) turned out to be 64 µM.

`O=C1c2ccccc2NC(c2ccc(OCc3cn(Cc4ccc(F)cc4)nn3)cc2)N1Cc1ccc(F)cc1` (stereo not drawn) [Compound 10f, 3-(4-fluorobenzyl)-2-(4-((1-(4-fluorobenzyl)-1H-1,2,3-triazol-4-yl)methoxy)phenyl)-2,3-dihydroquinazolin-4(1H)-one]: the melting point fell in the range of 69 to 72 °C. The IC50 in data set [1] (setting [3]) stood at 41.5 µM. For the same compound, the half-inhibitory concentration (IC50) in data set [1] (setting [4]) was 16.3 µM. In addition, in data set [2] (setting [5]), the IC50 was found to be 40.4 µM. Further, in data set [2] (setting [6]), the half-inhibitory concentration (IC50) was found to be 10.1 µM. Moreover, in the data set with Hek-293 cell lines, the “toxicity” value was “low toxicity” and the IC50 is 56.1 ± 10.4 µM.

On to `COc1cccc2c1C(=O)c1c(O)c3c(c(O)c1C2=O)C[C@@](O)(C(=O)CO)C[C@@H]3O[C@H]1C[C@H](N)[C@H](O)[C@H](C)O1` [DOX, doxorubicin, reference compound], for which the half-inhibitory concentration (IC50) in data set [1] (setting [3]) amounted to 1.33 µM; in data set [1] (setting [4]) it was 1.08 µM; in data set [2] (setting [5]) it was 1.66 µM; in data set [2] (setting [6]), 1.2 µM; with Hek-293 cell lines, 0.75 ± 0.09 µM.

Compound `O=C1c2ccccc2NC(c2ccc(OCc3cn(Cc4ccccc4)nn3)cc2)N1Cc1ccccc1` (stereo not drawn) [Compound 10a, 3-benzyl-2-(4-((1-benzyl-1H-1,2,3-triazol-4-yl)methoxy)phenyl)-2,3-dihydroquinazolin-4(1H)-one] registered a melting point of 65 to 68 °C. The IC50 in data set [1] (setting [3]) is 62.3 µM. In data set [1] (setting [4]), the IC50 was found to be 18.9 µM. Also, in data set [2] (setting [5]), the IC50 was found to be 88.8 µM. For the same compound, the IC50 in data set [2] (setting [6]) is 29 µM.

On to `Cc1ccccc1Cn1cc(COc2ccc(C3Nc4ccccc4C(=O)N3Cc3ccc(F)cc3)cc2)nn1` (stereo not drawn) [Compound 10e, 3-(4-fluorobenzyl)-2-(4-((1-(2-methylbenzyl)-1H-1,2,3-triazol-4-yl)methoxy)phenyl)-2,3-dihydroquinazolin-4(1H)-one], for which the melting point lay in the range of 63 to 65 °C. Also, the half-maximal inhibitory concentration (IC50) in data set [1] (setting [3]) worked out at 79.1 µM. In addition, in data set [1] (setting [4]), the half-inhibitory concentration (IC50) was found to be 48.8 µM. In data set [2] (setting [5]), the IC50 was determined as 48.2 µM. The IC50 in data set [2] (setting [6]) worked out at 33.3 µM.

In the case of `CC#Cc1ccc2c(=O)[nH]c(CSc3ncccn3)nc2c1` [Compound G], the 50% inhibitory concentration (IC50) in the data set with PARP10 is 9.3 µM.

`O=C1c2ccccc2NC(c2ccc(OCc3cn(Cc4ccc(Br)cc4)nn3)cc2)N1Cc1ccccc1` (stereo not drawn) [Compound 10d, 3-benzyl-2-(4-((1-(4-bromobenzyl)-1H-1,2,3-triazol-4-yl)methoxy)phenyl)-2,3-dihydroquinazolin-4(1H)-one] had a melting point of 93 to 95 °C. In data set [1] (setting [3]), the IC50 came out at 44.7 µM. In data set [1] (setting [4]), the 50% inhibitory concentration (IC50) came out at 14.8 µM. In addition, the half-maximal inhibitory concentration (IC50) in data set [2] (setting [5]) is 251 µM. The IC50 in data set [2] (setting [6]) was 206 µM.

As for `O=c1c2ccccc2nc(Nc2ccccc2)n1C1CC1` [Compound 5c, 3-cyclopropyl-2-(phenylamino)quinazolin-4(3H)-one], the melting point was 141 to 144 °C. The concentration for half-maximal inhibition (IC50) in data set [1] (setting [3]) stood at 74.9 µM. Moreover, in data set [1] (setting [4]), the IC50 came to 50.4 µM. For the same compound, the 50% inhibitory concentration (IC50) in data set [2] (setting [5]) is 59.2 µM. Besides, the IC50 in data set [2] (setting [6]) turned out to be 29.2 µM.

On to `Cc1c(-c2ccnc(C(F)(F)F)c2)ccc2c1CCNC2=O` [H], for which the IC50 with PARP10 was 2.7 µM.

`O=c1c2ccccc2nc(Nc2ccccc2)n1CCl` [Compound 5b, 3-(chloromethyl)-2-(phenylamino)quinazolin-4(3H)-one]: the melting point lay within 194 to 197 °C. Besides, the concentration for half-maximal inhibition (IC50) in data set [1] (setting [3]) came out at 101 µM. Also, the half-inhibitory concentration (IC50) in data set [1] (setting [4]) amounted to 76.2 µM. Further, in data set [2] (setting [5]), the 50% inhibitory concentration (IC50) came out at 59.3 µM. For the same compound, the 50% inhibitory concentration (IC50) in data set [2] (setting [6]) was 37.8 µM.

The compound `CC(C)n1c(Nc2ccccc2)nc2ccccc2c1=O` [Compound 5e, 3-isopropyl-2-(phenylamino)quinazolin-4(3H)-one] registered a melting point of 143 to 146 °C. Moreover, in data set [1] (setting [3]), the half-inhibitory concentration (IC50) worked out at 79 µM. The IC50 in data set [1] (setting [4]) was found to be 42.7 µM. For the same compound, the concentration for half-maximal inhibition (IC50) in data set [2] (setting [5]) stood at 88.7 µM. Also, the half-inhibitory concentration (IC50) in data set [2] (setting [6]) was 63.3 µM.
